Experiment in all cases: growth of human tumour cells (NCI), 48 h
The subject of assay [1] is 786-0.
Assay [2] deals with CCRF-CEM.
The test system of assay [3] is HOP-62.
Assay [4] concerns MCF7.
Assay [5] concerns MDA-MB-435.
Assay [6] relates to MDA-N.
The test system of assay [7] is MOLT-4.
Assay [8] concerns NCI-H23.
Assay [9] deals with NCI-H460.
The test system of assay [10] is OVCAR-5.
In assay [11] the test system is PC-3.
Assay [12] concerns SF-295.
In assay [13] the test system is SK-MEL-2.
Assay [14] relates to SNB-19.
Assay [15] deals with TK-10.
In assay [16] the test system is U-251.
The subject of assay [17] is UACC-257.
In assay [18] the test system is UACC-62.
For assay [19], the system named is A549.

We go through 11 molecules from ChEMBL document CHEMBL1201862, “PubChem BioAssay data set” (2004).

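Five compound concentrations were applied to cells in 96-well plates for 48 hours; endpoints were derived by simple linear interpolation of the resulting dose-response curve. The concentration for 50% growth inhibition is given as GI50.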 Active and inactive are the calls of the source. Rule as the data show it: active = GI50 up to about 1.1 µM and inactive = higher. Some results are limits rather than exact numbers.

For the molecule `O=c1cc(N2CCOCC2)[nH]c(=O)n1-c1ccc(F)cc1`, the GI50 in [1], in assay [2], in assay [3], in [4], in assay [5] and in assay [6] was > 100 µM (inactive) in each case. The GI50 in assay [7], in assay [8], in [9], in assay [10], in assay [11] and in assay [12] was > 100 µM (inactive) in each case. In addition, the GI50 in [13], in assay [14], in assay [15], in assay [16], in assay [17] and in assay [18] was > 100 µM (inactive) each time.

As for `CC1(C)C2CC3C4CC5(Nc6ccccc6C5N41)[C@]3(C)CC2=O` (stereo partly drawn), the GI50 in assay [1], in assay [19], in assay [2], in assay [3], in [4] and in assay [5] was > 50 µM (inactive) each time. The GI50 in assay [6], in [7], in assay [8], in assay [9], in assay [10] and in assay [11] was > 50 µM (inactive) throughout. Also, the GI50 in assay [12], in assay [13], in assay [15], in [16], in assay [17] and in [18] was > 50 µM (inactive) each time.

On to `COC(=O)/C=C/c1ccc2c(c1)CCC2`, for which the GI50 in [1] is 39.4 µM (inactive); in assay [19] it was 46.1 µM (inactive); in assay [2], 46.9 µM (inactive); in assay [3], > 100 µM (inactive); in [4], 52.5 µM (inactive); in assay [5] it was 63.1 µM (inactive). Moreover, the GI50 in assay [6] was > 100 µM (inactive); in assay [7], 41.9 µM (inactive); in assay [8], 37.2 µM (inactive); in [9], > 100 µM (inactive); in [10], > 100 µM (inactive); in assay [11] it was 30.4 µM (inactive). For the same molecule, the GI50 is 56 µM (inactive) in [12]; 48 µM (inactive) in assay [13]; 48.5 µM (inactive) in [14]; > 100 µM (inactive) in [15]; 9.79 µM (inactive) in assay [16]; 54 µM (inactive) in assay [17].

As to `CC/C(=N\NC(=O)c1cccnc1)c1ccc2c(c1)OCCO2`, the GI50 in [1] is > 100 µM (inactive); in [19], > 100 µM (inactive); in assay [2] it was > 100 µM (inactive); in assay [3], > 100 µM (inactive); in assay [4], 66.5 µM (inactive); in [5] it was 34.5 µM (inactive). Also, the GI50 in [6] is 30.9 µM (inactive); in assay [7] it was > 100 µM (inactive); in assay [8], > 100 µM (inactive); in [9], > 100 µM (inactive); in assay [10] it was > 100 µM (inactive); in [11] it was > 100 µM (inactive). For the same molecule, the GI50 in [12] was > 100 µM (inactive); in assay [13], > 100 µM (inactive); in assay [14], > 100 µM (inactive); in [15] it was > 100 µM (inactive); in assay [16] it was > 100 µM (inactive); in assay [18], 87.9 µM (inactive).

Take `Cc1ccc2nc(-c3ccc(-c4nc5ccc(C)cc5o4)c(O)c3)oc2c1`: the GI50 in assay [1], in [19], in assay [2], in assay [3], in [4] and in assay [5] was > 100 µM (inactive) throughout. The GI50 in assay [6], in assay [7], in [8], in assay [9], in [10] and in [11] was > 100 µM (inactive) in each case. The GI50 in [13], in assay [14], in [15], in assay [16] and in assay [18] was > 100 µM (inactive) each time.

Consider `O=C(NCCc1ccccc1)[C@H]1CCCC[C@@H]1CCO`, for which the GI50 in [1], in [19], in [2], in assay [3], in assay [4] and in assay [5] was > 100 µM (inactive) each time. The GI50 in [6], in [7], in assay [8], in assay [9], in assay [10] and in assay [11] was > 100 µM (inactive) in each case. For the same molecule, the GI50 in assay [12], in assay [13], in [15], in assay [16], in assay [17] and in [18] was > 100 µM (inactive) each time.

Regarding `O=C(ON=c1c2ccccc2ccc2ccccc12)c1cc([N+](=O)[O-])cc([N+](=O)[O-])c1`, the GI50 was > 100 µM (inactive) in [1]; 49.8 µM (inactive) in assay [19]; 25.5 µM (inactive) in [2]; > 100 µM (inactive) in [3]; 65 µM (inactive) in assay [4]; > 100 µM (inactive) in assay [5]. Further, the GI50 in [6] is 83.8 µM (inactive); in assay [7] it was 31.8 µM (inactive); in assay [8], > 100 µM (inactive); in assay [9], > 100 µM (inactive); in [10] it was > 100 µM (inactive); in assay [11] it was 41.8 µM (inactive). Also, the GI50 in assay [12] is 43.8 µM (inactive); in assay [13], > 100 µM (inactive); in assay [14], > 100 µM (inactive); in assay [15], > 100 µM (inactive); in assay [16], 70.6 µM (inactive); in assay [17], > 100 µM (inactive). The GI50 in assay [18] was 63.4 µM (inactive).

Turning to `COC(=O)c1cccc2c1Oc1ccccc1S2`, the GI50 in assay [1] was 42.9 µM (inactive); in assay [19] it was 75.2 µM (inactive); in [2], 23.4 µM (inactive); in [3], > 100 µM (inactive); in assay [4], 37.2 µM (inactive); in assay [5] it was > 100 µM (inactive). Also, the GI50 in assay [6] was > 100 µM (inactive); in assay [7] it was 24.5 µM (inactive); in assay [9] it was 44.3 µM (inactive); in assay [10], 73.8 µM (inactive); in assay [11] it was 63.2 µM (inactive); in assay [12], 60.8 µM (inactive). The GI50 is > 100 µM (inactive) in [13]; 41.2 µM (inactive) in [14]; > 100 µM (inactive) in assay [15]; 59.6 µM (inactive) in [16]; > 100 µM (inactive) in assay [17]; > 100 µM (inactive) in assay [18].

Take `Oc1ccc2oc3c(O)c4ccccc4cc3c2c1`: the GI50 in [1] was 5.93 µM (inactive); in assay [19] it was 24.9 µM (inactive); in assay [2], 1.5 µM (inactive); in assay [3], 35.2 µM (inactive); in assay [4] it was 3.33 µM (inactive); in assay [5], 0.948 µM (active). In addition, the GI50 was 0.927 µM (active) in [6]; 1.07 µM (active) in [7]; 10.6 µM (inactive) in assay [8]; 23.5 µM (inactive) in assay [9]; 4.06 µM (inactive) in [11]; 7.91 µM (inactive) in assay [13]. The GI50 was 83.4 µM (inactive) in [14]; 4.75 µM (inactive) in assay [15]; 4.86 µM (inactive) in assay [16]; 52 µM (inactive) in assay [17]; 0.121 µM (active) in [18].

For the molecule `Cc1cc(S(=O)(=O)Nc2nc(N)n[nH]2)c(S)cc1Cl`, the GI50 in assay [1], in [19], in assay [2], in assay [3], in [4] and in assay [5] was > 10 µM (inactive) each time. The GI50 in [6], in [7], in assay [8], in assay [9], in assay [10] and in assay [11] was > 10 µM (inactive) each time. The GI50 in [12], in [13], in [14], in [15], in assay [16] and in assay [17] was > 10 µM (inactive) throughout. Also, the GI50 in assay [18] was > 10 µM (inactive).

On to `Cc1occc(=O)c1O` [MALTOL], for which the GI50 in assay [1], in assay [19], in assay [2], in assay [3], in assay [4] and in [5] was > 100 µM (inactive) in each case. The GI50 in assay [6], in [7], in assay [8], in [9], in assay [10] and in assay [11] was > 100 µM (inactive) in each case. For the same molecule, the GI50 in [12], in assay [13], in assay [14], in assay [15], in [16] and in assay [17] was > 100 µM (inactive) each time.
